In patent US12473298B2, “Amide compounds, preparation method therefor, and use thereof in the medical field” (Shanghai Synergy Pharmaceutical Sciences Co., Ltd., priority 2019, dated 2025):
Where two headings read alike, the source gives them in different places.

Legend:
[1] = target: Mutant type EZH2(Y641F) (Homo sapiens (Human), UniProt Q15910, Y641F); experiment: AlphaLISA, mutant type PRC2 complex EZH2(Y641F); type: biochemical; conditions: read-out: Mutant type EZH2(Y641F) IC50 Nanomoles per Liter
[2] = target: Mutant type EZH2(A677G) (Homo sapiens (Human), UniProt Q15910, A677G); experiment: AlphaLISA, mutant type PRC2 complex EZH2(A677G); type: biochemical; conditions: read-out: Mutant type EZH2(A677G) IC59 Nanomoles per Liter
[3] = target: Mutant type EZH2(Y641N) (Homo sapiens (Human), UniProt Q15910, Y641N); experiment: AlphaLISA, mutant type PRC2 complex EZH2(Y641N); type: biochemical; conditions: read-out: Mutant type EZH2(Y641N) IC50 Nanomoles per Liter
[4] = test system: human diffuse large cell lymphoma B lymphocytes (Pfeiffer cell); experiment: Pfeiffer cell proliferation, Calcein AM staining; type: cell-based; conditions: Homo sapiens, Pfeiffer; data of 14th day; read-out: Pfeiffer Proliferation IC50 Nanomoles per Liter
Description: The diffuse large cell lymphoma B lymphocytes (Pfeiffer cells) were collected and counted when growing well.

[5] = test system: human diffuse large B-cell lymphoma cells (Karpas 422 cell); experiment: Karpas 422 cell proliferation, Calcein AM staining; type: cell-based; conditions: Homo sapiens, KARPAS-422; data of 14th day; read-out: Karpas422 Proliferation IC50 Nanomoles per Liter
[6] = target: wild-type EZH2 (Homo sapiens (Human), UniProt Q15910); experiment: radiometric assay, activity to wild-type EZH2 of PRC2; conditions: read-out: Wild-type EZH2 IC50 Nanomoles per Liter
Description: 25 μL of reaction solution was transferred to a scintillation plate, which was incubated at room temperature for 1 hour (h) and washed with deionized water and 0.1% Tween 20 for three times. A PerkinElmer liquid scintillation/luminescence counter was used to read the value, and GraphPad Prism 5 was used to calculate the median inhibitory concentration (IC50) of the compounds.

[7] = Pharmacokinetic experiment in rats; type: in vivo, SD rats
Description: A certain amount of compound was weighted and dissolved in 0.1% Tween under vortex and ultrasound, and 0.5% carboxymethyl cellulose sodium (CMC-NA) solution was added to form a uniform solution.

[8] = male, SD, rat, plasma, rats, Intravenous-Dose 4 mg/kg, read-out: Area Curve (AUC, ng/mL · h)
[9] = male, SD, rat, plasma; rats, Intravenous-Dose 4 mg/kg; read-out: Half life T1/2, h) (converted)
[10] = male, SD, rat, plasma, rats, Oral-Dose 20 mg/kg, read-out: Area Curve (AUC, ng/mL · h)
[11] = male, SD, rat, plasma, rats, Oral-Dose 20 mg/kg, read-out: Blood Drug level (Cmax, ng/mL)
[12] = male, SD, rat, plasma, rats, oral 20 mg/kg vs intravenous 4 mg/kg, read-out: Bioavailability (P %)
[13] = male, SD, rat, in vivo, iv, 4 mg/kg
[14] = male, SD, rat, in vivo, po, 20 mg/kg

Sequence of Mutant type EZH2(A677G) (Q15910 whole entry A677G): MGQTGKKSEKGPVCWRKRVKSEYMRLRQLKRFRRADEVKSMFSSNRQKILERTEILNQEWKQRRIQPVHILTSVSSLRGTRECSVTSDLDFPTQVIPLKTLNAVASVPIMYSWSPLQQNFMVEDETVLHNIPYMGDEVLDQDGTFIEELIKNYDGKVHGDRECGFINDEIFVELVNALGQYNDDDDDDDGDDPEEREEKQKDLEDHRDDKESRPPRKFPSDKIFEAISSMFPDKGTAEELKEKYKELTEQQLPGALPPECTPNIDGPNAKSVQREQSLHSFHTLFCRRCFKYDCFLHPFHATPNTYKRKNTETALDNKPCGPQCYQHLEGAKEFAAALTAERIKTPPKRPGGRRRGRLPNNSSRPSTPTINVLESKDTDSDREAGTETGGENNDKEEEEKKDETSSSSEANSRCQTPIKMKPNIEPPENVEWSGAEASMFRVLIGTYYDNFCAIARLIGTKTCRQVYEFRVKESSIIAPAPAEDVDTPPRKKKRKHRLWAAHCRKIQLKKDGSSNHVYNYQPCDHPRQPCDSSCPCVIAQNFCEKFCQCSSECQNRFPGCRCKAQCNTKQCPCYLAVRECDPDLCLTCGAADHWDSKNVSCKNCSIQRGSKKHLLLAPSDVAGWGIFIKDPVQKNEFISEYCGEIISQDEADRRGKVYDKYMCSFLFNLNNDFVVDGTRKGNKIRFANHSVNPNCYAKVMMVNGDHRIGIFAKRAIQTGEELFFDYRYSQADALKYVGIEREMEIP
Sequence of Mutant type EZH2(A677G) (O75530 whole entry partner): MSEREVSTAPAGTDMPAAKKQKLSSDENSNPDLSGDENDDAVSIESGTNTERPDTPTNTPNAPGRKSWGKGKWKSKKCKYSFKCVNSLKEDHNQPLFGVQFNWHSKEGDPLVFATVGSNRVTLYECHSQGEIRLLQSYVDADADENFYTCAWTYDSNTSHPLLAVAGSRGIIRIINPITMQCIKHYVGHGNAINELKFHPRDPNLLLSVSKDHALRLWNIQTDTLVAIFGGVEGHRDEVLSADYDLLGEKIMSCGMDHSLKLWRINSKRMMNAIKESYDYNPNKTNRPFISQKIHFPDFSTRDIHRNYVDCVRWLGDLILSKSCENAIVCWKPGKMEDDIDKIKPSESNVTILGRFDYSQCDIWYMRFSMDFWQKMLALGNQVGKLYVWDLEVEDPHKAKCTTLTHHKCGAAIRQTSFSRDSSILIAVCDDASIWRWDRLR
Sequence of Mutant type EZH2(A677G) (Q15022 whole entry partner): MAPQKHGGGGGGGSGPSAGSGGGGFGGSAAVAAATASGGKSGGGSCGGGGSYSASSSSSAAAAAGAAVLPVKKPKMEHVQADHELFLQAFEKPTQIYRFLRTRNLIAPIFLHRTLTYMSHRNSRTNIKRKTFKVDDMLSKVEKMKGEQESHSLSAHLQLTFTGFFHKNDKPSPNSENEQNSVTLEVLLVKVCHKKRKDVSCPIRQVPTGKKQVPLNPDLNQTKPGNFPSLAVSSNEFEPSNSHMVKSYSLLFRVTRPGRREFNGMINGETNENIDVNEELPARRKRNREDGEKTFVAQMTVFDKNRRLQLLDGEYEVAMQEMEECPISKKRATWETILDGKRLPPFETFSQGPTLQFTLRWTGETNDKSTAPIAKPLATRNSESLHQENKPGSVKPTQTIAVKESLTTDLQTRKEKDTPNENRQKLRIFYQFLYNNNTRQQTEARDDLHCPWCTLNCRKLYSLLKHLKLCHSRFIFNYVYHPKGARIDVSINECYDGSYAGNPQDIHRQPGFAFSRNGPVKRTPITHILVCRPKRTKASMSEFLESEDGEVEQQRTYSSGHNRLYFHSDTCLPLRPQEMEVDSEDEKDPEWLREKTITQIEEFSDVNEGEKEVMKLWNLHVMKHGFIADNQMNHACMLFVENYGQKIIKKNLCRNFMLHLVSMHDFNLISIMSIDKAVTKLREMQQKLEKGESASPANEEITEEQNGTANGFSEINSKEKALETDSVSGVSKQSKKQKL
Sequence of Mutant type EZH2(A677G) (Q09028 whole entry partner): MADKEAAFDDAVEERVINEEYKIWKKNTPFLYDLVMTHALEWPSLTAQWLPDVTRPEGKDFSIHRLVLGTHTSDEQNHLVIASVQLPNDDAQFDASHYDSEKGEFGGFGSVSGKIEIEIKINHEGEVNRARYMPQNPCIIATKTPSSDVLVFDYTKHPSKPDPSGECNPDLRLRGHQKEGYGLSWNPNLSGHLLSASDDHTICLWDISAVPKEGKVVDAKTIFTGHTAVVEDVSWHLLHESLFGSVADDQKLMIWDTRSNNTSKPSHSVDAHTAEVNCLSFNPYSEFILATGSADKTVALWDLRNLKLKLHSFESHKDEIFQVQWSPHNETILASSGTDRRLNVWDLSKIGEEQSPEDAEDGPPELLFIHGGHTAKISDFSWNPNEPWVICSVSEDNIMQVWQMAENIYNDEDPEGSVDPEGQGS
Sequence of Mutant type EZH2(A677G) (Q6ZN18 whole entry partner): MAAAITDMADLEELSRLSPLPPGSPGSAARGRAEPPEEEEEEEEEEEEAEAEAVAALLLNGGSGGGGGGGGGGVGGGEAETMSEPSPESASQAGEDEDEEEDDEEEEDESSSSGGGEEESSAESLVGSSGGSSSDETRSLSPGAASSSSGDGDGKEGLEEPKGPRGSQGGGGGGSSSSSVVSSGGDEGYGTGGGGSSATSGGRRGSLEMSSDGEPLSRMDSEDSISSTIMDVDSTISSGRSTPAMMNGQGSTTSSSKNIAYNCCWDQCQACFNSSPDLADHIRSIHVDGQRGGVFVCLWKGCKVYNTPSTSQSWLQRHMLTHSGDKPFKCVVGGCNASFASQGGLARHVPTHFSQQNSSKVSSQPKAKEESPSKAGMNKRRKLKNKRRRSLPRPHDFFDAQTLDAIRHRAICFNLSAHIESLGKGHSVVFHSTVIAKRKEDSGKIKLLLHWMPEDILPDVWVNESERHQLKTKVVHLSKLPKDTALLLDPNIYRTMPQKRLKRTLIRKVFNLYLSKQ
Sequence of Mutant type EZH2(Y641N) (Q15910 whole entry Y641N): as the sequence (Q15910 whole entry A677G) above, with Y641N, G677A counted along it
Sequence of Mutant type EZH2(Y641N) (O75530 whole entry partner): as the sequence (O75530 whole entry partner) above
Sequence of Mutant type EZH2(Y641N) (Q15022 whole entry partner): as the sequence (Q15022 whole entry partner) above
Sequence of Mutant type EZH2(Y641N) (Q09028 whole entry partner): as the sequence (Q09028 whole entry partner) above
Sequence of Mutant type EZH2(Y641N) (Q6ZN18 whole entry partner): as the sequence (Q6ZN18 whole entry partner) above
Sequence of wild-type EZH2 (Q15910 whole entry): as the sequence (Q15910 whole entry A677G) above, with G677A counted along it
Sequence of wild-type EZH2 (O75530 whole entry partner): as the sequence (O75530 whole entry partner) above
Sequence of wild-type EZH2 (Q15022 whole entry partner): as the sequence (Q15022 whole entry partner) above
Sequence of Mutant type EZH2(Y641F) (Q15910 whole entry Y641F): as the sequence (Q15910 whole entry A677G) above, with Y641F, G677A counted along it
Sequence of Mutant type EZH2(Y641F) (O75530 whole entry partner): as the sequence (O75530 whole entry partner) above
Sequence of Mutant type EZH2(Y641F) (Q15022 whole entry partner): as the sequence (Q15022 whole entry partner) above
Sequence of Mutant type EZH2(Y641F) (Q09028 whole entry partner): as the sequence (Q09028 whole entry partner) above
Sequence of Mutant type EZH2(Y641F) (Q6ZN18 whole entry partner): as the sequence (Q6ZN18 whole entry partner) above

SMILES	IC50 [1]	IC50 [2]	IC50 [3]	IC50 [4]	IC50 [5]	IC50 [6]	AUC [7, 8]	half-life [7, 9]	AUC [7, 10]	Cmax [7, 11]	bioavailability [7, 12]	AUC [7, 13]	half-life [7, 13]	AUC [7, 14]	Cmax [7, 14]	bioavailability [7, 14]
CCN(c1cc(-c2ccc3c(c2)NC(=O)C32CCOCC2)cc(C(=O)NCc2c(C)cc(C)[nH]c2=O)c1C)C1CCOCC1OC (stereo not drawn) [Example 102, N-((4,6-Dimethyl-2-oxo-1,2-dihydropyridin-3-yl)methyl)-3-((ethyl)(3-methoxytetrahydro-2H-pyran-4-yl)amino)-2-methyl-5-(2-oxo-2′,3′,5′,6′-tetrahydrospiro[dihydroindole-3,4′-pyran]-6-yl)benzamide]	0.89 nM	0.73 nM	0.45 nM	3.45 nM	3.87 nM	0.96 nM										
CCN(c1cc(-c2cc3c(cc2F)CCC32CCOCC2)cc(C(=O)NCc2c(C)cc(C)[nH]c2=O)c1C)C1CCOCC1 [Example 24, N-((4,6-dimethyl-2-carbonyl-1,2-dihydropyridin-3-yl)methyl)-3-(ethyl(tetrahydro-2H-pyran-4-yl)amino)-5-(5-fluoro-2,2′,3,3′,5′,6′-hexahydrospiro[indene-1,4′-pyran]-6-yl)-2-methylbenzamide]	0.56 nM	0.41 nM	0.23 nM	0.1 nM	0.41 nM		943 ng·h/mL	1.08 h	1350 ng·h/mL	479 ng/mL	28.7%					
CCN(c1cc(-c2ccc3c(c2)NCC32CCOCC2)cc(C(=O)NCc2c(C)cc(C)[nH]c2=O)c1C)C1CCNCC1 [Example 6, N-((4,6-dimethyl-2-oxo-1,2-dihydropyridin-3-yl)methyl)-3-(ethyl(piperidin-4-yl)amino)-2-methyl-5-(2′,3′,5′,6′-tetrahydrospiro[dihydroindole-3,4′-pyran]-6-yl)benzamide]	0.2 nM	0.2 nM	0.07 nM	1.14 nM	1.94 nM		936 ng·h/mL	1.26 h	1190 ng·h/mL	494 ng/mL	25.5%					
CCN(c1cc(-c2ccc3c(c2)CCC32CCOCC2)cc(C(=O)NCc2c(OC)cc(C)[nH]c2=O)c1C)C1CCOCC1 [Example 113, 3-(Ethyl(tetrahydro-2H-pyran-4-yl)amino)-5-(2,2′,3,3′,5′,6′-hexahydrospiro[indene-1,4′-pyran]-5-yl)-N-((4-methoxy-6-methyl-2-oxo-1,2-dihydropyridin-3-yl)methyl)-2-methylbenzamide]	0.54 nM	0.38 nM	0.27 nM	1.67 nM	2.5 nM											
CCN(c1cc(-c2ccc3c(c2)C=CC32CCN(C(C)C)CC2)cc(C(=O)NCc2c(OC)cc(C)[nH]c2=O)c1C)C1CCOCC1 [Example 37, 3-(ethyl(tetrahydro-2H-pyran-4-yl)amino)-5-(1′-isopropylspiro[indene-1,4′-piperidine]-5-yl)-N-((4-methoxy-6-methyl-2-carbonyl-1,2-dihydropyridin-3-yl)methyl)-2-methylbenzamide]	0.54 nM		0.23 nM	0.87 nM	0.95 nM	0.6 nM						903 ng·h/mL	1.25 h	1540 ng·h/mL	444 ng/mL	34.1%
CCN(c1cc(-c2ccc3c(c2)NC(=O)C32CCOCC2)cc(C(=O)NCc2c(OC)cc(C)[nH]c2=O)c1C)C1CCC(N(C)C2COC2)CC1 (stereo not drawn) [Example 122, 3-(Ethyl(4-(methyl(oxetan-3-yl)amino)cyclohexyl)amino)-N-((4-methoxy-6-methyl-2-oxo-1,2-dihydropyridin-3-yl)methyl)-2-methyl-5-(2-oxo-2′,3′,5′,6′-tetrahydrospiro[dihydroindole-3,4′-pyran]-6-yl)benzamide]			0.21 nM	2.91 nM	2.48 nM	0.87 nM										
CCN(c1cc(-c2cc3c(cc2F)C2(CCOCC2)CC3)cc(C(=O)NCc2c(OC)cc(C)[nH]c2=O)c1C)C1CCOCC1 [Example 17, 3-(ethyl(tetrahydro-2H-pyran-4-yl)amino)-5-(6-fluoro-2,2′,3,3′,5′,6′-hexahydrospiro[indene-1,4′-pyran]-5-yl)-N-((4-methoxy-6-methyl-2-carbonyl-1,2-dihydropyridin-3-yl)methyl)-2-methylbenzamide]			0.3 nM	2.78 nM	3.09 nM	1.1 nM										
CCN(c1cc(-c2ccc3c(c2)C(=O)C2(CCOCC2)C3)cc(C(=O)NCc2c(C)cc(C)[nH]c2=O)c1C)C1CCOCC1 [Example 78, N-((4,6-dimethyl-2-oxo-1,2-dihydropyridin-3-yl)methyl)-3-(ethyl(tetrahydro-2H-pyran-4-yl)amino)-2-methyl-5-(1-oxo-1,2′,3,3′,5′,6′-hexahydrospiro[indene-2,4′-pyran]-6-yl)benzamide]			0.23 nM	1.89 nM	2.21 nM	0.81 nM										
CCN(c1cc(-c2ccc3c(c2)CCC2(CCOCC2)C3=O)cc(C(=O)NCc2c(C)cc(C)[nH]c2=O)c1C)C1CCOCC1 [Example 106, N-((4,6-Dimethyl-2-oxo-1,2-dihydropyridin-3-yl)methyl)-3-(ethyl(tetrahydro-2H-pyran-4-yl)amino)-2-methyl-5-(1-oxo-2′,3,3′,4,5′,6′-hexahydro-1H-spiro[naphthalene-2,4′-pyran]-6-yl)benzamide]	0.82 nM	0.71 nM		3.41 nM	3.89 nM	0.98 nM										
CCN(c1cc(-c2ccc3c(c2)NC(=O)C32CCOCC2)cc(C(=O)NCc2c(C)cc(C)[nH]c2=O)c1C)C1CC(C)OC(C)C1 (stereo not drawn) [Example 104, N-((4,6-Dimethyl-2-oxo-1,2-dihydropyridin-3-yl)methyl)-3-(ethyl(2,6-dimethyltetrahydro-2H-pyran-4-yl)amino)-2-methyl-5-(2-oxo-2′,3′,5′,6′-tetrahydrospiro[dihydroindole-3,4′-pyran]-6-yl)benzamide]	0.31 nM	0.27 nM	0.19 nM	1.73 nM	1.82 nM											

Second part, led by results:

IC50 [1]	IC50 [2]	IC50 [3]	IC50 [4]	IC50 [5]	IC50 [6]	AUC [7, 8]	half-life [7, 9]	AUC [7, 10]	Cmax [7, 11]	bioavailability [7, 12]	SMILES	AUC [7, 13]	half-life [7, 13]	AUC [7, 14]	Cmax [7, 14]	bioavailability [7, 14]
0.36 nM		0.21 nM	1.06 nM	2.23 nM	0.67 nM						CCN(c1cc(-c2ccc3c(c2)NC(=O)C32CCOCC2)cc(C(=O)NCc2c(C)cc(C)[nH]c2=O)c1C)C1CCC(N(C)C)CC1 (stereo not drawn) [Example 98, N-((4,6-Dimethyl-2-oxo-1,2-dihydropyridin-3-yl)methyl)-3-((ethyl)(4-dimethylamino-cyclohexyl)amino)-2-methyl-5-(2-oxo-2′,3′,5′,6′-tetrahydrospiro[dihydroindole-3,4′-pyran]-6-yl)benzamide]					
0.53 nM	0.48 nM		2.35 nM	2.79 nM	0.78 nM						CCN(c1cc(-c2ccc3c(c2)NC(=O)C32CCOCC2)cc(C(=O)NCc2c(C)cc(C)[nH]c2=O)c1C)C1CCSCC1 [Example 95, N-((4,6-Dimethyl-2-oxo-1,2-dihydropyridin-3-yl)methyl)-3-(ethyl(tetrahydro-2H-thiapyran-4-yl)amino)-2-methyl-5-(2-oxo-2′,3′,5′,6′-tetrahydrospiro[dihydroindole-3,4′-pyran]-6-yl)benzamide]					
0.88 nM	0.57 nM		3.63 nM	4.57 nM	1.24 nM	990 ng·h/mL	1.64 h	1540 ng·h/mL	436 ng/mL	31.1%	CCN(c1cc(-c2ccc3c(c2)NC(=O)C32CCOCC2)cc(C(=O)NCc2c(C)cc(C)[nH]c2=O)c1C)C1CCS(=O)(=O)CC1 [Example 96, N-((4,6-Dimethyl-2-oxo-1,2-dihydropyridin-3-yl)methyl)-3-((ethyl)(1,1-dioxotetrahydro-2H-thiapyran-4-yl)amino)-2-methyl-5-(2-oxo-2′,3′,5′,6′-tetrahydrospiro[dihydroindole-3,4′-pyran]-6-yl)benzamide]					
0.63 nM	0.52 nM		0.36 nM	0.53 nM	0.92 nM						CCN(c1cc(-c2ccc3c(c2)NC(=O)C32CCOCC2)cc(C(=O)NCc2c(C)cc(C)[nH]c2=O)c1C)C1CCOCC1F (stereo not drawn) [Example 103, N-((4,6-Dimethyl-2-oxo-1,2-dihydropyridin-3-yl)methyl)-3-(ethyl(3-fluoro-tetrahydro-2H-pyran-4-yl)amino)-2-methyl-5-(2-oxo-2′,3′,5′,6′-tetrahydrospiro[dihydroindole-3,4′-pyran]-6-yl)benzamide]					
0.52 nM		0.16 nM	2.85 nM	3.62 nM	0.83 nM						CCN(c1cc(-c2ccc3c(c2)NC(=O)C32CCOCC2)cc(C(=O)NCc2c(C)cc(C)[nH]c2=O)c1C)C1CCN(C2COC2)CC1 [Example 82, N-((4,6-dimethyl-2-oxo-1,2-dihydropyridin-3-yl)methyl)-2-methyl-3-(ethyl(1-(oxetan-3-yl)piperidin-4-yl)amino)-5-(2-oxo-2′,3′,5′,6′-tetrahydrospiro[dihydroindole-3,4′-pyran]-6-yl)benzamide]					
